Test results published in patent US10710994B2, “Oxadiazole transient receptor potential channel inhibitors” (Genentech, Inc., priority 2018, dated 2020).
Read-outs that look alike come from different tables or passages of the source.

Biological target: human TRPA1 channel (Homo sapiens (Human), UniProt O75762)
Test: hTRPA1 CHO Ca2+ FLIPR Tetra assay: block of cinnamaldehyde induced calcium influx
Type: cell-based
Details: CHO cells expressing TRPA1, Hill coefficient fixed to 1.5
Summary of the method: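 TRPA1-expressing CHO cells loaded with calcium indicator dye (1 h 37° C, then 15 min room temperature) in HBSS/20 mM HEPES pH 7.4/0.02% BSA. IC50 from fits with fixed Hill coefficient.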

[1] = read-out: hTRPA1 IC50 10 min, 10 minutes incubation with compound before cinnamaldehyde (about EC80)
[2] = read-out: hTRPA1 IC50 90 min, 90 minutes incubation with compound before cinnamaldehyde (about EC80)
[3] = hTRPA1 IC50 10 min, 10 minutes incubation with compound before cinnamaldehyde (about EC80)
[4] = hTRPA1 IC50 90 min, 90 minutes incubation with compound before cinnamaldehyde (about EC80)

human TRPA1 channel, sequence (O75762 whole entry): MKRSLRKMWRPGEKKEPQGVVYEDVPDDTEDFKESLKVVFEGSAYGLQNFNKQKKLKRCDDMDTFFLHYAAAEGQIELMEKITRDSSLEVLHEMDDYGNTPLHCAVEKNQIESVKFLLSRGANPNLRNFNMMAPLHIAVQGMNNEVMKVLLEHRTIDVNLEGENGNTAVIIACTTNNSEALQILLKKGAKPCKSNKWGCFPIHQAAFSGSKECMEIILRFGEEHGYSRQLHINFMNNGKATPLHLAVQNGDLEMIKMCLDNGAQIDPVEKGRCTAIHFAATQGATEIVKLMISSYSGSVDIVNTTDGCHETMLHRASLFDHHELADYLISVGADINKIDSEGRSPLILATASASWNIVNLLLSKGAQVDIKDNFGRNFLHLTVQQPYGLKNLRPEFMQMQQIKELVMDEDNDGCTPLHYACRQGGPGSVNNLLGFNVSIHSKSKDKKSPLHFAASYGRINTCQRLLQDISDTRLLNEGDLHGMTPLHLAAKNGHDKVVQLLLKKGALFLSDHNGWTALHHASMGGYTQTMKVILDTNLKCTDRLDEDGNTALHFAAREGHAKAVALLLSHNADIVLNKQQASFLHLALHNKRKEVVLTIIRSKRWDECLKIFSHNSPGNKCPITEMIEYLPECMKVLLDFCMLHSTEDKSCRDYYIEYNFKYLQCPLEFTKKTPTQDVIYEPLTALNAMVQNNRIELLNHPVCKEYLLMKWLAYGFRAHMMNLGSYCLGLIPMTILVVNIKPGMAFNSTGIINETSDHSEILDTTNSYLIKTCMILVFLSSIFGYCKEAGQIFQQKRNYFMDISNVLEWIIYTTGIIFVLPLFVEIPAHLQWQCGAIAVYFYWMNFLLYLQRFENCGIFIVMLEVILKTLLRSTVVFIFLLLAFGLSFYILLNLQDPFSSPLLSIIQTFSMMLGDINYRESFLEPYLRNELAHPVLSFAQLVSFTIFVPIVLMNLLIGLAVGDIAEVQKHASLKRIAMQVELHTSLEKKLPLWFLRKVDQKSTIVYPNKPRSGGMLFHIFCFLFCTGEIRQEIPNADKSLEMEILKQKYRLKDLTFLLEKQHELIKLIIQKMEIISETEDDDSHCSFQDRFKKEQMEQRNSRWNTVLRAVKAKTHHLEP

Row | SMILES | IC50 [1] | IC50 [2] | IC50 [3] | IC50 [4]
1 | Cn1cnc2c(C(N)=O)nn(Cc3nc([C@@H]4CO[C@@H](c5ccc(Cl)cc5)C4)no3)c(=O)c21 [Example 116, 6-((3-((3R,5R)-5-(4-chlorophenyl)tetrahydro-furan-3-yl)-1,2,4-oxadiazol-5-yl)methyl)-1-methyl-7-oxo-6,7-dihydro-1H-imidazo [4,5-d]pyridazine-4-carboxamide] | 76.5 nM | 39 nM |  | 
2 | Cn1cnc2[nH]c(=O)n(Cc3nc([C@@H]4CO[C@@H](c5ccc(Cl)cc5)C4)no3)c(=O)c21 [Example 7, 1-((3-((3R, 5R)-5-(4-chlorophenyl)-tetrahydrofuran-3-yl)-1,2,4-oxadiazol-5-yl)methyl)-7-methyl-1H-purine-2,6(3H,7H)-dione] | 313 nM | 23 nM |  | 
3 | O=c1c2c(ncn1Cc1nc([C@@H]3CO[C@@H](c4ccc(Cl)cc4)C3)no1)CNCC2 [Example 73, 3-((3-((3R,5R)-5-(4-chlorophenyl)tetrahydro-furan-3-yl)-1,2,4-oxadiazol-5-yl)methyl)-5,6,7,8-tetrahydropyrido [3,4-d]pyrimidin-4(3H)-one] |  | 22 nM |  | 
4 | Cn1cnc2ncn(Cc3nc([C@@H]4CO[C@@H](c5ccccc5Cl)C4)no3)c(=O)c21 [Example 14, 1-((3-((3R,5R)-5-(2-chlorophenyl)tetra-hydrofuran-3-yl)-1,2,4-oxadiazol-5-yl)methyl)-7-methyl-1,7-dihydro-6H-purin-6-one] | 335 nM | 160 nM |  | 
5 | Cc1cnn2ncn(Cc3nc([C@@H]4CO[C@@H](c5ccc6ncsc6c5)C4)no3)c(=O)c12 [Example 142, 3-((3-((3R,5R)-5-(benzo[d]thiazol-6-yl)tetrahydrofuran-3-yl)-1,2,4-oxadiazol-5-yl)methyl)-5-methylpyrazolo[5,1-f] [1,2,4]triazin-4(3H)-one] | 81.7 nM | 40 nM |  | 
6 | Nc1ccc2c(=O)n(Cc3nc([C@@H]4CO[C@@H](c5ccc(Cl)cc5)C4)no3)cnc2n1 [Example 28, 7-amino-3-((3-((3R,5R)-5-(4-chlorophenyl)tetrahydro-furan-3-yl)-1,2,4-oxadiazol-5-yl)methyl)pyrido[2,3-d]pyrimidin-4(3H)-one] | 6.32 nM | 3.9 nM |  | 
7 | Cc1cnn2nc(N)n(Cc3nc([C@@H]4CO[C@@H](c5ccc(F)cc5)C4)no3)c(=O)c12 [Example 3, 2-amino-3-((3-((3R,5R)-5-(4-fluorophenyl)tetrahydrofuran-3-yl)-1,2,4-oxadiazol-5-yl)methyl)-5-methylpyrazolo[5,1-f][1,2,4]triazin-4(3H)-one] | 5.02 nM | 1.3 nM |  | 
8 | Cn1cnc2nc(N)n(Cc3nc([C@@H]4CO[C@@H](c5ccc(F)cc5)C4)no3)c2c1=O (racemic) [Example 157, 8-amino-1-methyl-7-[[3-[rac-(3R,5R)-5-(4-fluorophenyl)tetrahydro-furan-3-yl]-1,2,4-oxadiazol-5-yl]methyl]purin-6-one] |  |  | 470 nM | 87 nM
9 | Cn1nnc2ccn(Cc3nc([C@@H]4CO[C@@H](c5ccc(Cl)cc5)C4)no3)c(=O)c21 [Example 61, 5-((3-((3R,5R)-5-(4-chlorophenyl)tetrahydro-furan-3-yl)-1,2,4-oxadiazol-5-yl)methyl)-3-methyl-3,5-dihydro-4H-[1,2,3]triazolo[4,5-c]pyridin-4-one] | 4.65 nM | 2.1 nM |  | 
10 | Cn1cnc2ncn(Cc3nc([C@@H]4CO[C@@H](c5ccc(Cl)c(Cl)c5)C4)no3)c(=O)c21 [Example 31, 1-((3-((3R,5R)-5-(3,4-dichlorophenyl)tetra-hydrofuran-3-yl)-1,2,4-oxadiazol-5-yl)methyl)-7-methyl-1,7-dihydro-6H-purin-6-one] | 19.7 nM | 7.8 nM |  | 
11 | Cn1c(=O)[nH]c2ncn(Cc3nc([C@@H]4CO[C@@H](c5ccc(Cl)cc5)C4)no3)c(=O)c21 [Example 9, 1-((3-((3R, 5R)-5-(4-chlorophenyl)-tetrahydrofuran-3-yl)-1,2,4-oxadiazol-5-yl)methyl)-7-methyl-1H-purine-6,8(7H,9H)-dione] | 40.4 nM | 11 nM |  | 
12 | O=c1c2cccnc2cnn1Cc1nc([C@@H]2CO[C@@H](c3ccc(F)cc3)C2)no1 [Example 11, 6-((3-((3R,5R)-5-(4-fluorophenyl)tetra-hydrofuran-3-yl)-1,2,4-oxadiazol-5-yl)methyl)pyrido[2,3-d]pyridazin-5(6H)-one] | 16.6 nM | 13 nM |  | 
13 | Cc1nc2nc(N)n(Cc3nc([C@@H]4CO[C@@H](c5ccc(Cl)cc5)C4)no3)c(=O)c2n1C (racemic) [Example 152, 2-amino-7,8-dimethyl-1-[[3-[rac-(3R,5R)-5-(4-chlorophenyl)tetrahydro-furan-3-yl]-1,2,4-oxadiazol-5-yl]methyl]purin-6-one] |  |  | 43.1 nM | 6.2 nM
14 | O=c1c2cccc(=O)n2ccn1Cc1nc([C@@H]2CO[C@@H](c3ccc(F)cc3)C2)no1 (racemic) [Example 94, 2-[[3-[rac-(3R,5R)-5-(4-fluorophenyl)tetrahydro-furan-3-yl]-1,2,4-oxadiazol-5-yl]methyl]pyrido[1,2-a] pyrazine-1,6-dione] |  |  |  | 12 nM
15 | Cn1cnc2nc(N)n(Cc3nc([C@@H]4CO[C@@H](c5cccc(F)c5)C4)no3)c(=O)c21 [Example 125, 2-amino-1-((3-((3R,5R)-5-(3-fluorophenyl)tetrahydrofuran-3-yl)-1,2,4-oxadiazol-5-yl)methyl)-7-methyl-1,7-dihydro-6H-purin-6-one] | 40.5 nM | 3.1 nM |  | 
16 | Cn1c(N)nc2ncn(Cc3nc([C@@H]4CO[C@@H](c5ccc(Cl)cc5)C4)no3)c(=O)c21 [Example 26, 8-amino-1-((3-((3R,5R)-5-(4-chlorophenyl)tetrahydro-furan-3-yl)-1,2,4-oxadiazol-5-yl)methyl)-7-methyl-1,7-dihydro-6H-purin-6-one] | 58.7 nM | 9.7 nM |  | 
17 | Cn1nnc2nc(N)n(Cc3nc([C@@H]4CO[C@@H](c5ccc(Cl)cc5)C4)no3)c(=O)c21 (racemic) [Example 156, 5-amino-1-methyl-6-[[3-[rac-(3R,5R)-5-(4-chlorophenyl)tetrahydro-furan-3-yl]-1,2,4-oxadiazol-5-yl]methyl]triazolo[4,5-d]pyrimidin-7-one] |  |  | 16.1 nM | 2.1 nM
18 | Cc1cnn2ncn(Cc3nc([C@@H]4CO[C@@H](c5ccc(Cl)cn5)C4)no3)c(=O)c12 (racemic) [Example 72, Racemic 3-((3-((3R,5R)-5-(5-chloropyridin-2-yl)tetrahydrofuran-3-yl)-1,2,4-oxadiazol-5-yl)methyl)-5-methylpyrazolo[5,1-f] [1,2,4]triazin-4(3H)-one] |  |  | 219 nM | 150 nM
19 | Cc1nc(N)n2ncn(Cc3nc([C@@H]4CO[C@@H](c5ccc(F)cc5)C4)no3)c(=O)c12 [Example 81, 7-amino-3-((3-((3R,5R)-5-(4-fluorophenyl)tetrahydro-furan-3-yl)-1,2,4-oxadiazol-5-yl)methyl)-5-methyl-imidazo[5,1-f][1,2,4]triazin-4(3H)-one] |  | 75 nM |  | 
20 | Nc1nc2cccnc2n1Cc1nc([C@@H]2CO[C@@H](c3ccc(Cl)cc3)C2)no1 [Example 155, 3-[[3-[(3R,5R)-5-(4-chlorophenyl)tetrahydro-furan-3-yl]-1,2,4-oxadiazol-5-yl]methyl]imidazo[4,5-b]pyridin-2-amine] | 10.3 nM | 7.5 nM |  | 
21 | Cc1nc(C)n2ncn(Cc3nc([C@@H]4CO[C@@H](c5ccc(Cl)cc5)C4)no3)c(=O)c12 (racemic) [Example 97, 5,7-dimethyl-3-[[3-[rac-(3R,5R)-5-(4-chlorophenyl)tetrahydro-furan-3-yl]-1,2,4-oxadiazol-5-yl]methyl] imidazo[5,1-f][1,2,4] triazin-4-one] |  |  |  | 45 nM
22 | Cc1cnn2nc(N)n(Cc3nc([C@@H]4CO[C@@H](c5cccc(F)c5)C4)no3)c(=O)c12 [Example 127, 2-amino-3-((3-((3R,5R)-5-(3-fluorophenyl)tetrahydro-3-yl)-1,2,4-oxadiazol-5-yl)methyl)-5-methylpyrazolo[5,1-f] [1,2,4]triazin-4(3H)-one] | 17.9 nM | 2.9 nM |  | 
23 | Cn1cnc2ncn(Cc3nc([C@@H]4CO[C@@H](c5ccccc5F)C4)no3)c(=O)c21 [Example 15, 1-((3-((3R,5R)-5-(2-fluorophenyl)tetrahydro-furan-3-yl)-1,2,4-oxadiazol-5-yl)methyl)-7-methyl-1,7-dihydro-6H-purin-6-one] | 127 nM | 59 nM |  | 
24 | Cn1cnc2nnn(Cc3nc([C@@H]4CO[C@@H](c5ccc(Cl)cc5)C4)no3)c(=O)c21 [Example 141, 3-((3-((3R,5R)-5-(4-chlorophenyl)tetrahydro-furan-3-yl)-1,2,4-oxadiazol-5-yl)methyl)-5-methyl-3,5-dihydro-4H-imidazo[4,5-d][1,2,3] triazin-4-one] | 30.9 nM | 11 nM |  | 
25 | Cc1cnc(N)n(Cc2nc([C@@H]3CO[C@@H](c4ccc(Cl)cc4)C3)no2)c1=O [Example 128, 2-amino-3-((3-((3R,5R)-5-(4-chlorophenyl)tetra-hydrofuran-3-yl)-1,2,4-oxadiazol-5-yl)methyl)-5-methylpyrimidin-4(3H)-one] | 146 nM | 67 nM |  | 
26 | Nc1nc2ncsc2c(=O)n1Cc1nc([C@@H]2CO[C@@H](c3ccc(Cl)cc3)C2)no1 (racemic) [Example 158, 5-amino-6-[[3-[rac-(3R,5R)-5-(4-chlorophenyl)tetrahydro-furan-3-yl]-1,2,4-oxadiazol-5-yl]methyl]thiazolo[4,5-d]pyrimidin-7-one] |  |  | 5.73 nM | 1.4 nM
